Data from patent US6395740B1, “Calcitonin mimetics” (ZymoGenetics, Inc., priority 1997, dated 2002).

Tested on: PTH-induced bone resorption in mouse calvaria
Assay: Calvarial assay to determine calcitonin escape
Format: cell-based
Experimental: Calvaria from 4-day old neonatal CD-1 mice (pregnant mice received from Charles River Laboratories) were trimmed with fine-tipped scissors to leave the parietal regions, including the sagittal suture. These trimmed bones were placed singly per well into 6-well culture cluster plates (Costar) with 1 mL/well of growth medium, Basel Medium (Eagle's with Earle's salts (GIBCO BRL, Gaithersburg, Md.)) containing 4.5 g/L glucose, 0.29 mg/mL L-glutamine, 1 mM sodium pyruvate, 15% heat-inactivated horse serum, antibiotics (penicillin-G 50 μg/mL, streptomycin 50 μg/mL, and neomycin 100 μg/mL) and containing 5 nM parathyroid hormone (PTH) 1-34 (Sigma), and rocked gently (RedRocker™) at 37° C. in a 5% CO2 humidified incubator for 17.5 hours preincubation. The concentration of PTH was chosen to insure maximum resorption. Calvaria designated as controls were pre-incubated in media without PTH.
Following preincubation, medium was removed and replaced with 1 mL/well of growth medium, as above, containing 20 or 30 μg/mL of the calcitonin mimetic 850-0231 in DMSO (final assay concentration of DMSO less than or equal to 1%), and compared with human calcitonin (hCT) tested at 0.5, 1.0, 5.0, […] All control wells contained a final assay concentration of DMSO equal to that present in the calcitonin mimetic treated wells.
Five bones were included in each sample group. Bones were incubated for a total of 98 hours. Time points were taken at 4, 8, 11, 24, 50.5, 72.5 and 98 hours. At each time point the media containing PTH was removed and fresh dilutions of compound in media were added to the calvaria. After the media was removed, total calcium measurements were made using a Nova 7/7+7 Electrolyte Analyzed (Nova Biomedical) according to the manufacturer's specifications. Induction of bone resorption by PTH is seen as an increase in the concentration of calcium in the growth medium due to degradation of the bone matrix.
A second calvaria bone resorption/escape assay was performed as described above with time points at 4, 8, 12, 16, 24, 49 and 73 hours. […] Histology was done on the PTH-treated and the 30 μg/mL calcitonin mimetic-treated calvaria.
A third calvaria bone resorption/escape assay was performed as described above with the following modifications. The calcitonin mimetic was tested at 5, 10 and 20 μg/mL. PTH was used at 10 nM to insure maximal resorption, hCT was tested at 2 nM and 8 nM and sCT was not included. Calvaria were pretreated with PTH for 19.75 hours. BrdU (bromodeoxyuridine, final concentration 10 μM) was added to the growth media for the final 17.5 hours, to identify proliferating cells. The lack of toxicity of 850-0231 will be verified by quartitating the number of proliferating BudU cells in histological sections of the calvaria. Time points were taken at 4, 8, 11, 24.5, 48 and 77 hours. A Novo CRT 10+ electrolyte analyzer (Nova Biomedical) was used to analyze the time point samples.
At the final time point, visual observations were made and photos taken to note the extent of resorption, and migration from the calvarial cells as a measure of toxicity. Again, human calcitonin lost its inhibitory effect between hours 11 and 24 (Table 5). The calvaria treated with the mimetic at 5 and 10 μg/mL also lost inhibitory effect between 11 and 24 hours.

COc1cc(CN2CCN(C(=O)Nc3cccc(C(F)(F)F)c3)CC2)ccc1O [Compound 850-0231]
escape / continued inhibition of resorption (first assay, PTH 5 nM, 30 μg/mL): did not undergo this escape and continued to inhibit resorption throughout the 98th, hour
Cumulative Total Calcium (first assay, PTH 5 nM, 850-0231 30 μg/mL, 4 hours): 0.16 mg %
Cumulative Total Calcium (first assay, PTH 5 nM, 850-0231 30 μg/mL, 8 hours): 0.28 mg %
Cumulative Total Calcium (first assay, PTH 5 nM, 850-0231 30 μg/mL, 11 hours): 0.36 mg %
Cumulative Total Calcium (first assay, PTH 5 nM, 850-0231 30 μg/mL, 24 hours): 0.48 mg %
Cumulative Total Calcium (first assay, PTH 5 nM, 850-0231 30 μg/mL, 50.5 hours): 0.32 mg %
Cumulative Total Calcium (first assay, PTH 5 nM, 850-0231 30 μg/mL, 72.5 hours): 0.12 mg %
Cumulative Total Calcium (first assay, PTH 5 nM, 850-0231 30 μg/mL, 98 hours): −0.18 mg %
toxicity judged by number of cells migrated from calvaria (first assay, final time point): not toxic to the cells
visual observation of the calvaria (resorption) (first assay, final time point (98 hours)): almost identical in appearance to the untreated calavaria
histology of treated calvaria (integrity, toxicity) (second assay, 30 μg/mL): intact and showed minimal signs of toxicity
continued inhibition of resorption (second assay, PTH 5 nM): able to continue inhibition of resorption throughout the 73rd hour
Cumulative Total Calcium (second assay, PTH 5 nM, 850-0231 30 μg/mL, 4 hours): 0.40 mg %
Cumulative Total Calcium (second assay, PTH 5 nM, 850-0231 30 μg/mL, 8 hours): 0.70 mg %
Cumulative Total Calcium (second assay, PTH 5 nM, 850-0231 30 μg/mL, 12 hours): 0.88 mg %
Cumulative Total Calcium (second assay, PTH 5 nM, 850-0231 30 μg/mL, 16 hours): 1.14 mg %
Cumulative Total Calcium (second assay, PTH 5 nM, 850-0231 30 μg/mL, 24 hours): 1.04 mg %
Cumulative Total Calcium (second assay, PTH 5 nM, 850-0231 30 μg/mL, 49 hours): 0.86 mg %
Cumulative Total Calcium (second assay, PTH 5 nM, 850-0231 30 μg/mL, 73 hours): 0.56 mg %
inhibition of resorption (third assay, PTH 10 nM, 20 μg/mL): significantly inhibited at all time points
Cumulative Total Calcium (third assay, PTH 10 nM, 850-0231 5 μg/mL, 4 hours): 0.47 mg %
Cumulative Total Calcium (third assay, PTH 10 nM, 850-0231 5 μg/mL, 8 hours): 1.08 mg %
Cumulative Total Calcium (third assay, PTH 10 nM, 850-0231 5 μg/mL, 11 hours): 1.49 mg %
Cumulative Total Calcium (third assay, PTH 10 nM, 850-0231 5 μg/mL, 24.5 hours): 3.73 mg %
Cumulative Total Calcium (third assay, PTH 10 nM, 850-0231 5 μg/mL, 48 hours): 7.54 mg %
Cumulative Total Calcium (third assay, PTH 10 nM, 850-0231 5 μg/mL, 77 hours): 11.83 mg %
Cumulative Total Calcium (third assay, PTH 10 nM, 850-0231 10 μg/mL, 4 hours): 0.41 mg %
Cumulative Total Calcium (third assay, PTH 10 nM, 850-0231 10 μg/mL, 8 hours): 0.87 mg %
Cumulative Total Calcium (third assay, PTH 10 nM, 850-0231 10 μg/mL, 11 hours): 1.30 mg %
Cumulative Total Calcium (third assay, PTH 10 nM, 850-0231 10 μg/mL, 24.5 hours): 3.05 mg %
Cumulative Total Calcium (third assay, PTH 10 nM, 850-0231 10 μg/mL, 48 hours): 5.96 mg %
Cumulative Total Calcium (third assay, PTH 10 nM, 850-0231 10 μg/mL, 77 hours): 8.87 mg %
Cumulative Total Calcium (third assay, PTH 10 nM, 850-0231 20 μg/mL, 4 hours): 0.35 mg %
Cumulative Total Calcium (third assay, PTH 10 nM, 850-0231 20 μg/mL, 8 hours): 0.70 mg %
Cumulative Total Calcium (third assay, PTH 10 nM, 850-0231 20 μg/mL, 11 hours): 0.94 mg %
Cumulative Total Calcium (third assay, PTH 10 nM, 850-0231 20 μg/mL, 24.5 hours): 2.23 mg %
Cumulative Total Calcium (third assay, PTH 10 nM, 850-0231 20 μg/mL, 48 hours): 3.20 mg %
Cumulative Total Calcium (third assay, PTH 10 nM, 850-0231 20 μg/mL, 77 hours): 3.78 mg %
